Experiments:
[1] = target: T1, ATP-dependent translocase ABCB1 (Homo sapiens, UniProt P08183); test: TP_TRANSPORTER: RT-PCR in vivo, duodenal; assay type: functional, organism-based, Duodenum
[2] = target: T1, ATP-dependent translocase ABCB1; test: TP_TRANSPORTER: immunohistochemistry in vivo, duodenum; assay type: functional, organism-based

T1 sequence (P08183 whole entry): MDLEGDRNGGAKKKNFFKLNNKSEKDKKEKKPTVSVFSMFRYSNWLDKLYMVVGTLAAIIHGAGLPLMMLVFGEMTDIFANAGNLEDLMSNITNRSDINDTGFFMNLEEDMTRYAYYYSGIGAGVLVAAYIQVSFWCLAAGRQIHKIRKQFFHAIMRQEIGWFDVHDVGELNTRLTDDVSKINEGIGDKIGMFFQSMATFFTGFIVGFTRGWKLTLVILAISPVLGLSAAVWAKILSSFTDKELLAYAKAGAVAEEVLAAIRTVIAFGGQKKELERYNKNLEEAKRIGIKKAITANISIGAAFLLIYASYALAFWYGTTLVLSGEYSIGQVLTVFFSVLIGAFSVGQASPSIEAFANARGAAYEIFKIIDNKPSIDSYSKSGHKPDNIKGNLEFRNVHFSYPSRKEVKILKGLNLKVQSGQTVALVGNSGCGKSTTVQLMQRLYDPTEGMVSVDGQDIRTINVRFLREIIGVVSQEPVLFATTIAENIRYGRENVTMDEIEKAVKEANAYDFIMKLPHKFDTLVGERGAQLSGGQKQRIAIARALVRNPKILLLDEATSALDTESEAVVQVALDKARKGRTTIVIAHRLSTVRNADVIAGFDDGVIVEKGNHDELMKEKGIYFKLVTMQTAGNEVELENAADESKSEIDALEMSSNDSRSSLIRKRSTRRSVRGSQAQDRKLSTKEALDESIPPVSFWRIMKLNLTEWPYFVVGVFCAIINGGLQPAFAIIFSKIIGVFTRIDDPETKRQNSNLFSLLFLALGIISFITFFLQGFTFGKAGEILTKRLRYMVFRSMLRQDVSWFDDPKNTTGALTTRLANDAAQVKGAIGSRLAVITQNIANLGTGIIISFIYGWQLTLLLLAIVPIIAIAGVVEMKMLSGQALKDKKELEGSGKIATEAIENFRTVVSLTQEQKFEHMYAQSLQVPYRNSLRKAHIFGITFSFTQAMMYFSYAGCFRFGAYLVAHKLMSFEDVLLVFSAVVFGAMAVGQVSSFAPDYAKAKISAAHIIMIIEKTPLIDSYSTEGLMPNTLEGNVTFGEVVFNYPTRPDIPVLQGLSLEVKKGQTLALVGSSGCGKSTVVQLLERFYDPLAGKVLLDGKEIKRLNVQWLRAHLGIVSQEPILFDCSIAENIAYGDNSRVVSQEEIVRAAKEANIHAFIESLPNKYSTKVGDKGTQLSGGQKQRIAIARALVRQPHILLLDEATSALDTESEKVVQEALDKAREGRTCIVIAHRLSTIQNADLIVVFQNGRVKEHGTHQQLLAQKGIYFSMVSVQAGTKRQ

Activity [1]: inducer [+]
Activity [2]: inducer [+]
Structure (SMILES): N[C@@H](Cc1cc(I)c(Oc2cc(I)c(O)c(I)c2)c(I)c1)C(=O)O [LEVOTHYROXINE]
